Assay results from US20190255086A1, “Compositions and Methods for Treating an Infection” (CMPD Licensing, LLC, priority 2015, published 2019).
Read-outs that look alike come from different tables or passages of the source.

Tests used:
[1] = tested on: Klebsiella (Calymmatobacterium) granulomatis; test: Expected efficacy of anti-bacterial agents against various bacteria (Tables 5 and 6); settings: Gram: neg
[2] = tested on: Shigella sonnei; test: as above; settings: Gram: neg
[3] = tested on: Shigella boydii; test: as above; settings: Gram: neg
[4] = tested on: Acinetobacter baumannii; test: as above; settings: Gram: neg
[5] = tested on: Enterobacter sakazakii; test: as above; settings: Gram: neg
[6] = tested on: Haemophilus ducreyi; test: as above; settings: Gram: neg
[7] = tested on: Providencia rettgeri; test: as above; settings: Gram: neg
[8] = tested on: Haemophilus influenzae; test: as above; settings: Gram: neg
[9] = tested on: Klebsiella pneumoniae; test: as above; settings: Gram: neg
[10] = tested on: Providencia stuartii; test: as above; settings: Gram: neg
[11] = tested on: Vibrio cholerae; test: as above; settings: Gram: neg
[12] = tested on: Salmonella typhi; test: as above; settings: Gram: neg
[13] = tested on: Corynebacterium jeikeium; test: as above; settings: Gram: pos
[14] = tested on: Klebsiella oxytoca; test: as above; settings: Gram: neg
[15] = tested on: Acinetobacter calcoaceticus; test: as above; settings: Gram: neg
[16] = tested on: Legionella pneumophila
[17] = tested on: Francisella tularensis
[18] = tested on: Methicillin resistant staph aureus (MRSA); test: Expected efficacy of anti-bacterial agents against various bacteria (Tables 5 and 6); settings: Gram: pos
[19] = tested on: Serratia marcescens; test: as above; settings: Gram: neg
[20] = tested on: Acinetobacter lwoffii; test: as above; settings: Gram: neg
[21] = tested on: Neisseria meningitidis; test: as above; settings: Gram: neg
[22] = tested on: Pseudomonas fluorescens; test: as above; settings: Gram: neg
[23] = tested on: Proteus mirabilis; test: as above; settings: Gram: neg
[24] = tested on: Shigella flexneri; test: as above; settings: Gram: neg
[25] = tested on: Bartonella bacilliformis; test: as above; settings: Gram: neg
[26] = tested on: Campylobacter jejuni; test: as above; settings: Gram: neg
[27] = tested on: Enterobacter aerogenes; test: as above; settings: Gram: neg
[28] = tested on: Pseudomonas aeruginosa; test: as above; settings: Gram: neg
[29] = tested on: Enterobacter cloacae; test: as above; settings: Gram: neg
[30] = tested on: Citrobacter diversus; test: as above; settings: Gram: neg
[31] = tested on: Clostridium perfringens
[32] = tested on: Morganella morganii; test: Expected efficacy of anti-bacterial agents against various bacteria (Tables 5 and 6); settings: Gram: neg
[33] = tested on: Proteus vulgaris; test: as above; settings: Gram: neg
[34] = tested on: gram-positive staphylococci and streptococci; settings: general background statement; cited from earlier work
[35] = tested on: Rickettsiae
[36] = tested on: Moraxella catarrhalis; test: Expected efficacy of anti-bacterial agents against various bacteria (Tables 5 and 6); settings: Gram: neg
[37] = tested on: Neisseria gonorrhoeae; test: as above; settings: Gram: neg
[38] = tested on: Bordetella pertussis; test: as above; settings: Gram: neg
[39] = tested on: Yersinia pestis
[40] = tested on: Streptococcus pyogenes; test: Expected efficacy of anti-bacterial agents against various bacteria (Tables 5 and 6); settings: Gram: pos
[41] = tested on: Brucella species
[42] = tested on: Escherichia coli; test: Expected efficacy of anti-bacterial agents against various bacteria (Tables 5 and 6); settings: Gram: neg
[43] = tested on: Corynebacterium urealyticum; test: as above; settings: Gram: pos
[44] = tested on: Staphylococcus aureus (MSSA); test: as above; settings: Gram: pos
[45] = tested on: Shigella dysenteriae; test: as above; settings: Gram: neg
[46] = tested on: Citrobacter freundii; test: as above; settings: Gram: neg
[47] = tested on: Cryptococcus neoformans; test: Expected efficacy of anti-fungal agents against various fungi (Table 4)
[48] = tested on: Coccidioides immitis; settings: expected efficacy
[49] = tested on: Blastomyces dermatitidis; test: Expected efficacy of anti-fungal agents against various fungi (Table 4)
[50] = tested on: Candida species; test: as above
[51] = tested on: Aspergillus fumigatus; test: as above
[52] = tested on: Clostridium difficile; test: Expected efficacy of anti-bacterial agents against various bacteria (Tables 5 and 6); settings: Gram: anaer
[53] = tested on: Staphylococcus epidermidis; test: as above; settings: Gram: pos
[54] = tested on: Streptococcus pneumoniae; test: as above; settings: Gram: pos
[55] = tested on: Enterococcus faecium; test: as above; settings: Gram: pos
[56] = tested on: Chlamydia pneumoniae; test: as above; settings: Gram: n/a
[57] = tested on: Haemophilus parainfluenzae; test: as above; settings: Gram: neg
[58] = tested on: Peptostreptococcus; test: as above; settings: Gram: pos
[59] = tested on: Viridans group streptococci; test: as above; settings: Gram: pos
[60] = tested on: Chlamydia trachomatis; test: as above; settings: Gram: n/a
[61] = tested on: Diphtheroids; test: as above; settings: Gram: pos
[62] = tested on: Bacteroides fragilis; test: as above; settings: Gram: anaer
[63] = tested on: Enterococcus faecalis; test: as above; settings: Gram: pos
[64] = tested on: Streptococcus agalactiae; test: as above; settings: Gram: pos
[65] = tested on: Chlamydia psittaci
[66] = tested on: Mycoplasma pneumoniae; test: Expected efficacy of anti-bacterial agents against various bacteria (Tables 5 and 6); settings: Gram: n/a
[67] = tested on: Aspergillus terreus; test: Expected efficacy of anti-fungal agents against various fungi (Table 4)
[68] = tested on: Fusarium species; test: as above
[69] = tested on: Aspergillus niger; test: as above

## C/C(=C\C(=O)OCCCCCCCCC(=O)O)C[C@@H]1OC[C@H](C[C@@H]2O[C@H]2[C@@H](C)[C@H](C)O)[C@@H](O)[C@H]1O [Bactroban, Mupirocin]
[1]
  Efficacy of various antibiotic agents: no
[2]
  Efficacy of various antibiotic agents: no
[3]
  Efficacy of various antibiotic agents: no
[4]
  Efficacy of various antibiotic agents: no
[5]
  Efficacy of various antibiotic agents: no
[6]
  Efficacy of various antibiotic agents: no
[7]
  Efficacy of various antibiotic agents: no
[8]
  Efficacy of various antibiotic agents: no
[9]
  Efficacy of various antibiotic agents: no
[10]
  Efficacy of various antibiotic agents: no
[11]
  Efficacy of various antibiotic agents: no
[12]
  Efficacy of various antibiotic agents: no
[13]
  Efficacy of various antibiotic agents: no
[14]
  Efficacy of various antibiotic agents: no
[15]
  Efficacy of various antibiotic agents: no
[16]; expected efficacy, Legionella pneumophila, Gram: neg
  Efficacy of various antibiotic agents: no
[17]; expected efficacy, Francisella tularensis, Gram: neg
  Efficacy of various antibiotic agents: no
[18]
  Efficacy of various antibiotic agents: yes
[19]
  Efficacy of various antibiotic agents: no
[20]
  Efficacy of various antibiotic agents: no
[21]
  Efficacy of various antibiotic agents: no
[22]
  Efficacy of various antibiotic agents: no
[23]
  Efficacy of various antibiotic agents: no
[24]
  Efficacy of various antibiotic agents: no
[25]
  Efficacy of various antibiotic agents: no
[26]
  Efficacy of various antibiotic agents: no
[27]
  Efficacy of various antibiotic agents: no
[28]
  Efficacy of various antibiotic agents: no
[29]
  Efficacy of various antibiotic agents: no
[30]
  Efficacy of various antibiotic agents: no
[31]; expected efficacy, Clostridium perfringens, Gram: anaer
  Efficacy of various antibiotic agents: no
[32]
  Efficacy of various antibiotic agents: no
[33]
  Efficacy of various antibiotic agents: no
[34]
  activity against gram-positive staphylococci and streptococci: excellent activity
[35]; expected efficacy, Rickettsiae, Gram: neg
  Efficacy of various antibiotic agents: no
[36]
  Efficacy of various antibiotic agents: no
[37]
  Efficacy of various antibiotic agents: no
[38]
  Efficacy of various antibiotic agents: no
[39]; expected efficacy, Yersinia pestis, Gram: neg
  Efficacy of various antibiotic agents: no
[40]
  Efficacy of various antibiotic agents: yes
[41]; expected efficacy, Brucella species, Gram: neg
  Efficacy of various antibiotic agents: no
[42]
  Efficacy of various antibiotic agents: no
[43]
  Efficacy of various antibiotic agents: no
[44]
  Efficacy of various antibiotic agents: yes
[45]
  Efficacy of various antibiotic agents: no
[46]
  Efficacy of various antibiotic agents: no

## OC(Cn1cncn1)(Cn1cncn1)c1ccc(F)cc1F [Fluconazole]
[47]
  Efficacy of various antifungal agents: yes
[48]
  Efficacy of various antifungal agents: yes
[49]
  Efficacy of various antifungal agents: yes
[50]
  Efficacy of various antifungal agents: yes
[51]
  Efficacy of various antifungal agents: yes

## CN[C@H](CC(C)C)C(=O)N[C@H]1C(=O)N[C@@H](CC(N)=O)C(=O)N[C@H]2C(=O)N[C@H]3C(=O)N[C@H](C(=O)N[C@H](C(=O)O)c4cc(O)cc(O)c4-c4cc3ccc4O)[C@H](O)c3ccc(c(Cl)c3)Oc3cc2cc(c3O[C@@H]2O[C@H](CO)[C@@H](O)[C@H](O)[C@H]2O[C@H]2C[C@](C)(N)[C@H](O)[C@H](C)O2)Oc2ccc(cc2Cl)[C@H]1O [Vancomycin]
[1]
  Efficacy of various antibiotic agents: no
[2]
  Efficacy of various antibiotic agents: no
[52]
  Efficacy of various antibiotic agents: yes
[3]
  Efficacy of various antibiotic agents: no
[4]
  Efficacy of various antibiotic agents: no
[53]
  Efficacy of various antibiotic agents: yes
[5]
  Efficacy of various antibiotic agents: no
[54]
  Efficacy of various antibiotic agents: yes
[55]
  Efficacy of various antibiotic agents: yes, not VRE
[6]
  Efficacy of various antibiotic agents: no
[7]
  Efficacy of various antibiotic agents: no
[56]
  Efficacy of various antibiotic agents: no
[8]
  Efficacy of various antibiotic agents: no
[9]
  Efficacy of various antibiotic agents: no
[10]
  Efficacy of various antibiotic agents: no
[57]
  Efficacy of various antibiotic agents: no
[11]
  Efficacy of various antibiotic agents: no
[12]
  Efficacy of various antibiotic agents: no
[58]
  Efficacy of various antibiotic agents: yes
[13]
  Efficacy of various antibiotic agents: yes
[14]
  Efficacy of various antibiotic agents: no
[15]
  Efficacy of various antibiotic agents: no
[59]
  Efficacy of various antibiotic agents: yes
[16]
  Efficacy of various antibiotic agents: no
[17]
  Efficacy of various antibiotic agents: no
[18]
  Efficacy of various antibiotic agents: yes
[19]
  Efficacy of various antibiotic agents: no
[20]
  Efficacy of various antibiotic agents: no
[21]
  Efficacy of various antibiotic agents: no
[60]
  Efficacy of various antibiotic agents: no
[22]
  Efficacy of various antibiotic agents: no
[23]
  Efficacy of various antibiotic agents: no
[24]
  Efficacy of various antibiotic agents: no
[25]
  Efficacy of various antibiotic agents: no
[61]
  Efficacy of various antibiotic agents: yes
[26]
  Efficacy of various antibiotic agents: no
[62]
  Efficacy of various antibiotic agents: no
[27]
  Efficacy of various antibiotic agents: no
[63]
  Efficacy of various antibiotic agents: yes
[28]
  Efficacy of various antibiotic agents: no
[29]
  Efficacy of various antibiotic agents: no
[30]
  Efficacy of various antibiotic agents: no
[31]
  Efficacy of various antibiotic agents: no
[32]
  Efficacy of various antibiotic agents: no
[33]
  Efficacy of various antibiotic agents: no
[64]
  Efficacy of various antibiotic agents: yes
[65]
  Efficacy of various antibiotic agents: no
[35]
  Efficacy of various antibiotic agents: no
[36]
  Efficacy of various antibiotic agents: no
[37]
  Efficacy of various antibiotic agents: no
[38]
  Efficacy of various antibiotic agents: no
[39]
  Efficacy of various antibiotic agents: no
[40]
  Efficacy of various antibiotic agents: yes
[41]
  Efficacy of various antibiotic agents: no
[42]
  Efficacy of various antibiotic agents: no
[43]
  Efficacy of various antibiotic agents: yes
[66]
  Efficacy of various antibiotic agents: no
[44]
  Efficacy of various antibiotic agents: yes
[45]
  Efficacy of various antibiotic agents: no
[46]
  Efficacy of various antibiotic agents: no

## C[C@@H](c1ncncc1F)[C@](O)(Cn1cncn1)c1ccc(F)cc1F [Voriconazole]
[67]
  Efficacy of various antifungal agents: yes
[68]
  Efficacy of various antifungal agents: yes
[50]
  Efficacy of various antifungal agents: yes
[69]
  Efficacy of various antifungal agents: yes
[51]
  Efficacy of various antifungal agents: yes
